Measured values: patent US8946327B2, “Method for producing synthetic amylospheroid” (Tao Health Life Pharma., Ltd., priority 2011, dated 2015)

System: primary cultured neurons derived from hippocampus of mature rat
Assay: Cytotoxicity test (Cell Death Detection ELISA, apoptosis)
Assay type: cell-based
Protocol: The formation of ASPD was confirmed by the following cytotoxicity test. A certain amount of ASPD was administered overnight to primary cultured neurons (more than 19 days after starting culture) derived from hippocampus of mature rat, and the neurotoxicity was measured in accordance with protocols using Cell Death Detection ELISA manufactured by Roche Diagnostics. This is an ELISA kit for quantitative detection of histone-complexed DNA fragmentation in the cells caused by apoptosis.

Molecule | cytotoxicity (neurotoxicity) (solution containing the same concentration of DEHP and not containing synthetic ASPD, data not shown) | cytotoxicity (neurotoxicity) (solution containing synthetic ASPD before purification, 1, 2 and 4 μM in terms of Aβ42, administered overnight, compared with Comparative Example 1 (DEHP−), FIG. 2)
CCCCC(CC)COC(=O)c1ccccc1C(=O)OCC(CC)CCCC (centres unmarked) [DEHP, bis(2-ethylhexyl)phthalate] | No cytotoxicity | –
Example 1: synthetic ASPD (amylospheroid) formed from Aβ42 by agitation using 65 mM DEHP/DMSO solution | – | significant cytotoxicity in a concentration-dependent manner
